Entries after “also recorded” stand apart in the source; their conditions may differ.
Experiments:
[1] = test system: Human Hodgkin's lymphoma cells L1236; test: Effect of IBT and interferon on Hodgkin's lymphoma cells (CellTiter 96 MTS viability); format: cell-based; conditions: 3, 5 or 7 days; IBT at doses up to 10 μM; FIG. 12
Protocol: Human Hodgkin's lymphoma cells L1236 were incubated for 3, 5 or 7 days in complete RPMI1640 and 10% FBS. The cells were plated at 3×10^5 cells/mL.
The effect was more pronounced after 7 days of incubation.
The results are illustrated in FIG. 12. The y-axis represent the normalized viability when compared to control cells incubated with 0.1% DMSO with no interferon or IBT added, adjusted at 100%. The cell viability was determined using CellTiter 96 Aqueous One Solution Cell Proliferation Assay (Promega). (CellTiter 96 uses a novel tetrazolium compound (MTS) and an electron coupling reagent, phenazine ethosulfate.)

[2] = test system: malignant lymphocytes from two patients with chronic lymphocytic leukemia [CLL]; test: Effect of the p53 inhibitory compounds on B-CLL viability (PI exclusion by FACS, MTT), 3 days culture; format: cell-based; conditions: FIG. 1
Excerpt: The malignant lymphocytes from two patients with chronic lymphocytic leukemia [CLL] were isolated by ficoll-hypaque sedimentation and suspended at a density of 1 million cells per milliliter in RPMI 1640 medium supplemented with 10% fetal bovine serum. Two hundred microliter aliquots of cells were dispersed in the wells of culture plates containing the indicated final concentrations of either PFT-α (“PFT-open”) or IBT (PFT-closed). After 3 days culture, viable cells were enumerated by fluorescence-activated cell sorting [FACS] after staining with propidium iodide [PI]. Viable cells excluded the dye [open circles]. In addition, cell metabolism was assessed by the ability of the cells to […] the tetrazolium dye MTT [closed squares].

[3] = test system: BEAS-2B human airway epithelial cells; test: Viability of treated cells at end of incubation in the 12/15-lipoxygenase promoter/luciferase STAT-6 reporter assay; format: cell-based; conditions: 10 μM for 1 hour, then IL-4 10 ng/ml, 16 hours
Protocol: The BEAS-2B human airway epithelial cells were transiently transfected with the human 12/15-lipoxygenase promoter/luciferase reporter gene. Cells were then incubated with the IBT analogs (FIG. 5) at 10 μM for 1 hour, followed by IL-4 (10 ng/ml). After 16 hours, luciferase was measured using a chemiluminometer. The STAT-6 induction was normalized using the B-gal results as “background.” The viability of the treated cells was visually verified at the end of the incubation, and found to be >95%. Results shown in FIG. 3 are the mean of duplicate measurements.
Human airway epithelial cells, BEAS-2B, were transiently transfected with the human 12/15-lipoxygenase promoter/luciferase reporter plasmid with and without a STAT6 expressing plasmid. The cells were incubated with 10 μM of STAT-6 (Control Sample 1); 10 μM STAT-6 (Sample 2); a mixture of STAT-6 and compound 8 (Sample 3); and compound 8 alone (Sample 4); for 1 hour. This was followed treatment with 10 ng/mL of IL-4 (except control). After 16 hours, luciferase was measured using a chemiluminometer. The STAT-6 induction was normalized using the β-gal results as “background”. The viability of the treated cells was visually verified at the end of the incubation, and found to be>95%. The results are illustrated in FIG. 7.

[4] = test system: Chronic lymphocytic leukemia [CLL] cells; test: Protection against spontaneous apoptosis and fludarabine-induced apoptosis (PI negative / DiOC6 high cells by FACS); format: cell-based; conditions: one micromolar, 3 days culture, FIG. 2
Protocol: Chronic lymphocytic leukemia [CLL] cells were cultured for 3 days as described in Example 2. Some of the cultures were supplemented with one micromolar of PFT-open or PFT-closed, as indicated. In the experiment shown in the bottom panel of FIG. 2, some of the cultures also contained the cytotoxic adenine nucleoside analog fludarabine [abbreviated F-AraA]. Fludarabine is the first line treatment for CLL, and the toxicity of the drug is dependent upon the p53 pathway. To assess healthy, viable cells, staining was done with both PI, as indicated in Example 2, and with the mitochondrial dye DiOC6. Cells that were both PI negative and DIOC6 high were enumerated by FACS.

[5] = Cyclization of PFT-α to IBT in DMSO/water dilutions, reversed phase HPLC over time; format: physicochemical; conditions: for % cyclized to IBT: DMSO stock diluted with water, 25° C., reversed phase HPLC
Protocol: The preparation of PFT-α was accomplished as shown in Scheme 1 by reacting 4-methyl-2-bromoacetophenone with 2-amino-4,5,6,7-tetrahydrobenzothiazole. Upon recrystallization of the PFT-α from isopropyl alcohol, it was noticed that PFT-α readily ring-closed completely to the imidazo[2, 1-b]benzothiazole (IBT). Therefore, a subsequent investigation was undertaken to study the propensity of PFT-α to ring-close in protic solvents. […] Thus, PFT-α was dissolved in DMSO and water dilutions were made from this stock.

## Cc1ccc(-c2cn3c4c(sc3n2)CCCC4)cc1 [IBT]
[1]
  Anti-proliferative / growth-inhibitory effect on L1236 cells (normalized viability): only a small anti-proliferative effect
[2]
  CLL survival / toxicity (viable cells by PI exclusion and MTT): non-toxic at concentrations up to 100 micromolar
[3]
  Viability of the treated cells, visually verified at the end of the incubation: > 95%
[4]
  Effect on untreated CLL cells (spontaneous apoptosis): nearly equivalent effects
[4]; with fludarabine, compared with PFT-α
  Protective effect on CLL cells treated with F-AraA (fludarabine): less protective effects

## Cc1ccc(C(=O)Cn2c3c(sc2=N)CCCC3)cc1 [PFT-α]
[5]; 0 h
  % cyclized to IBT: 5%
[5]; 12 h
  % cyclized to IBT: 47%
[5]; 24 h
  % cyclized to IBT: 69%
[5]; 48 h
  % cyclized to IBT: 92%
[5]; protic solvents, room temperature, aqueous solution
  Stability / ring closure in protic solvents and aqueous solution (in words): unstable in aqueous solution under in vivo conditions; also recorded: begins cyclizing at room temperature immediately upon dissolution in protic solvents
[2]
  CLL survival / toxicity (viable cells by PI exclusion and MTT): dose-dependently reduced CLL survival
[4]
  Effect on untreated CLL cells (spontaneous apoptosis): nearly equivalent effects
